Laboratory results: ChEMBL document CHEMBL5724914, “Linking interpersonal differences in gut microbiota composition and drug biotransformation activity” (2024)

Columns and labels:
[1] = human gut metagenome, 24 h, 2 µM
[2] = The drug is tested on WLS-098 corresponding to human gut metagenome with ENA study accession number: PRJEB37062 and ENA sample accession number: ERS12561754 for biotransformation under anaerobic condition. The drug concentrations were measured over 9 timepoints collected between 0 and 24 hours of incubation by liquid-chromatography-coupled mass spectrometry (LC–MS); conditions: 2 µM
[3] = The drug is tested on Z-030 corresponding to mouse gut metagenome with ENA study accession number: PRJEB37062 and ENA sample accession number: ERS12561829 for biotransformation under anaerobic condition. The drug concentrations were measured over 9 timepoints collected between 0 and 24 hours of incubation by liquid-chromatography-coupled mass spectrometry (LC–MS); conditions: 2 µM
[4] = The drug is tested on WLS-010 corresponding to human gut metagenome with ENA study accession number: PRJEB37062 and ENA sample accession number: ERS12561743 for biotransformation under anaerobic condition. The drug concentrations were measured over 9 timepoints collected between 0 and 24 hours of incubation by liquid-chromatography-coupled mass spectrometry (LC–MS); conditions: 2 µM
[5] = human gut metagenome, 24 h, 2 µM; remark: listed apart in the source
[6] = The drug is tested on Z-014 corresponding to rat gut metagenome with ENA study accession number: PRJEB37062 and ENA sample accession number: ERS12561814 for biotransformation under anaerobic condition. The drug concentrations were measured over 9 timepoints collected between 0 and 24 hours of incubation by liquid-chromatography-coupled mass spectrometry (LC–MS); conditions: 2 µM
[7] = human gut metagenome, 24 h, 2 µM; remark: listed apart in the source
[8] = The drug is tested on Z-024 corresponding to pig gut metagenome with ENA study accession number: PRJEB37062 and ENA sample accession number: ERS12561823 for biotransformation under anaerobic condition. The drug concentrations were measured over 9 timepoints collected between 0 and 24 hours of incubation by liquid-chromatography-coupled mass spectrometry (LC–MS); conditions: 2 µM
[9] = human gut metagenome, 24 h, 2 µM; remark: listed apart in the source
[10] = human gut metagenome, 24 h, 2 µM; remark: listed apart in the source
[11] = human gut metagenome, 24 h, 2 µM; remark: listed apart in the source
[12] = The drug is tested on Z-011 corresponding to mouse gut metagenome with ENA study accession number: PRJEB37062 and ENA sample accession number: ERS12561811 for biotransformation under anaerobic condition. The drug concentrations were measured over 9 timepoints collected between 0 and 24 hours of incubation by liquid-chromatography-coupled mass spectrometry (LC–MS); conditions: 2 µM
[13] = The drug is tested on Z-012 corresponding to metagenome with ENA study accession number: PRJEB37062 and ENA sample accession number: ERS12561812 for biotransformation under anaerobic condition. The drug concentrations were measured over 9 timepoints collected between 0 and 24 hours of incubation by liquid-chromatography-coupled mass spectrometry (LC–MS); conditions: 2 µM
[14] = The drug is tested on WLS-006 corresponding to human gut metagenome with ENA study accession number: PRJEB37062 and ENA sample accession number: ERS12561741 for biotransformation under anaerobic condition. The drug concentrations were measured over 9 timepoints collected between 0 and 24 hours of incubation by liquid-chromatography-coupled mass spectrometry (LC–MS); conditions: 2 µM
[15] = The drug is tested on Z-026 corresponding to metagenome with ENA study accession number: PRJEB37062 and ENA sample accession number: ERS12561825 for biotransformation under anaerobic condition. The drug concentrations were measured over 9 timepoints collected between 0 and 24 hours of incubation by liquid-chromatography-coupled mass spectrometry (LC–MS); conditions: 2 µM
[16] = The drug is tested on WLS-069 corresponding to human gut metagenome with ENA study accession number: PRJEB37062 and ENA sample accession number: ERS12561748 for biotransformation under anaerobic condition. The drug concentrations were measured over 9 timepoints collected between 0 and 24 hours of incubation by liquid-chromatography-coupled mass spectrometry (LC–MS); conditions: 2 µM
[17] = human gut metagenome, 24 h, 2 µM; remark: listed apart in the source
[18] = The drug is tested on Z-016 corresponding to mouse gut metagenome with ENA study accession number: PRJEB37062 and ENA sample accession number: ERS12561815 for biotransformation under anaerobic condition. The drug concentrations were measured over 9 timepoints collected between 0 and 24 hours of incubation by liquid-chromatography-coupled mass spectrometry (LC–MS); conditions: 2 µM
[19] = human gut metagenome, 24 h, 2 µM; remark: listed apart in the source
[20] = The drug is tested on WLS-077 corresponding to human gut metagenome with ENA study accession number: PRJEB37062 and ENA sample accession number: ERS12561750 for biotransformation under anaerobic condition. The drug concentrations were measured over 9 timepoints collected between 0 and 24 hours of incubation by liquid-chromatography-coupled mass spectrometry (LC–MS); conditions: 2 µM
Also: call rule not given here.

Row | Structure (SMILES) | Bacterial Biotransformation [1] | Bacterial Biotransformation [2] | Bacterial Biotransformation [3] | Bacterial Biotransformation [4] | Bacterial Biotransformation [5] | Bacterial Biotransformation [6] | Bacterial Biotransformation [7] | Bacterial Biotransformation [8] | Bacterial Biotransformation [9] | Bacterial Biotransformation [10] | Bacterial Biotransformation [11] | Bacterial Biotransformation [12] | Bacterial Biotransformation [13] | Bacterial Biotransformation [14] | Bacterial Biotransformation [15] | Bacterial Biotransformation [16] | Bacterial Biotransformation [17] | Bacterial Biotransformation [18] | Bacterial Biotransformation [19] | Bacterial Biotransformation [20]
1 | COc1ccc(CN2CCNCC2)c(OC)c1OC.Cl.Cl [TRIMETAZIDINE DIHYDROCHLORIDE] | Compound NOT metabolized | Compound NOT metabolized | Compound NOT metabolized | Compound NOT metabolized | Compound NOT metabolized | Compound NOT metabolized | Compound NOT metabolized | Compound NOT metabolized | Compound NOT metabolized | Compound NOT metabolized | Compound NOT metabolized | Compound NOT metabolized | Compound NOT metabolized | Compound NOT metabolized | Compound NOT metabolized | Compound NOT metabolized | Compound NOT metabolized | Compound NOT metabolized | Compound NOT metabolized | Compound NOT metabolized
2 | COc1ccnc(C[S+]([O-])c2nc3ccc(OC(F)F)cc3[nH]2)c1OC (stereo not given) [PANTOPRAZOLE] | Compound metabolized | Compound metabolized | Compound metabolized | Compound metabolized | Compound metabolized | Compound NOT metabolized | Compound metabolized | Compound metabolized | Compound metabolized | Compound NOT metabolized | Compound metabolized | Compound metabolized | Compound metabolized | Compound metabolized | Compound metabolized | Compound metabolized | Compound metabolized | Compound metabolized | Compound metabolized | Compound metabolized
3 | CCOC(=O)[C@H](CCc1ccccc1)N[C@@H](C)C(=O)N1Cc2ccccc2C[C@H]1C(=O)O | Compound metabolized | Compound metabolized | Compound NOT metabolized | Compound metabolized | Compound metabolized | Compound NOT metabolized | Compound metabolized | Compound NOT metabolized | Compound NOT metabolized | Compound NOT metabolized | Compound metabolized | Compound NOT metabolized | Compound NOT metabolized | Compound metabolized | Compound NOT metabolized | Compound metabolized | Compound metabolized | Compound NOT metabolized | Compound metabolized | Compound metabolized
4 | C[C@]12C=CC(=O)C=C1CC[C@@H]1[C@@H]2C(=O)C[C@@]2(C)[C@H]1CC[C@]2(O)C(=O)CO [PREDNISONE] | Compound metabolized | Compound metabolized | Compound NOT metabolized | Compound metabolized | Compound metabolized | Compound NOT metabolized | Compound metabolized | Compound metabolized | Compound NOT metabolized | Compound NOT metabolized | Compound metabolized | Compound NOT metabolized | Compound metabolized | Compound metabolized | Compound metabolized | Compound metabolized | Compound metabolized | Compound metabolized | Compound metabolized | Compound metabolized
5 | CC[C@H](C)C(=O)O[C@H]1CCC=C2C=C[C@H](C)[C@H](CC[C@@H]3C[C@@H](O)CC(=O)O3)[C@H]21 [MEVASTATIN] | Compound metabolized | Compound NOT metabolized | Compound metabolized | Compound metabolized | Compound metabolized | Compound NOT metabolized | Compound metabolized | Compound NOT metabolized | Compound metabolized | Compound NOT metabolized | Compound metabolized | Compound NOT metabolized | Compound NOT metabolized | Compound metabolized | Compound metabolized | Compound metabolized | Compound metabolized | Compound NOT metabolized | Compound metabolized | Compound NOT metabolized
